Measurements published in PubChem BioAssay (NCI).
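Briefly, cells in 96-well plates were exposed to five compound concentrations for 48 h, and endpoints were estimated by linear interpolation. Definition used: TGI = concentration required for complete inhibition of growth.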

Experiments:
Experiment in all cases: NCI tumour cell line growth inhibition, 48 h
OVCAR-5 ovarian = system: OVCAR-5 ovarian
UACC-257 melanoma = system: UACC-257 melanoma
KM20L2 colon = system: KM20L2 colon
LOX IMVI melanoma = system: LOX IMVI melanoma
SK-MEL-5 melanoma = system: SK-MEL-5 melanoma
SNB-19 CNS = system: SNB-19 CNS
NCI-H460 lung = system: NCI-H460 lung
CAKI-1 renal = system: CAKI-1 renal
HOP-18 NSCLC = system: HOP-18 NSCLC
NCI-H522 lung = system: NCI-H522 lung
DLD-1 colon = system: DLD-1 colon
HT29 colon = system: HT29 colon
786-0 renal = system: 786-0 renal
HOP-62 NSCLC = system: HOP-62 NSCLC
OVCAR-3 ovarian = system: OVCAR-3 ovarian
A549 NSCLC = system: A549 NSCLC
SF-268 CNS = system: SF-268 CNS
EKVX NSCLC = system: EKVX NSCLC
HCT-116 colon = system: HCT-116 colon
SR leukemia = system: SR leukemia
M14 melanoma = system: M14 melanoma
KM12 colon = system: KM12 colon
RPMI-8226 leukemia = system: RPMI-8226 leukemia
SF-295 CNS = system: SF-295 CNS
MALME-3M melanoma = system: MALME-3M melanoma
DMS 273 small cell lung = system: DMS 273 small cell lung
LXFL 529 NSCLC = system: LXFL 529 NSCLC
COLO 205 colon = system: COLO 205 colon
HL-60(TB) leukemia = system: HL-60(TB) leukemia
SNB-75 CNS = system: SNB-75 CNS
U251 CNS = system: U251 CNS
OVCAR-8 ovarian = system: OVCAR-8 ovarian
HCC-2998 colon = system: HCC-2998 colon
CCRF-CEM leukemia = system: CCRF-CEM leukemia
SN12C renal = system: SN12C renal
SW-620 colon = system: SW-620 colon
ACHN renal = system: ACHN renal
IGROV1 ovarian = system: IGROV1 ovarian
A498 renal = system: A498 renal
SK-MEL-28 melanoma = system: SK-MEL-28 melanoma
UO-31 renal = system: UO-31 renal
MOLT-4 leukemia = system: MOLT-4 leukemia
NCI-H23 lung = system: NCI-H23 lung
SK-OV-3 ovarian = system: SK-OV-3 ovarian
HOP-92 NSCLC = system: HOP-92 NSCLC
SF-539 CNS = system: SF-539 CNS
NCI-H226 lung = system: NCI-H226 lung
RXF 393 renal = system: RXF 393 renal
K-562 leukemia = system: K-562 leukemia
TK-10 renal = system: TK-10 renal
SNB-78 CNS = system: SNB-78 CNS
HCT-15 colon = system: HCT-15 colon
XF 498 CNS = system: XF 498 CNS
M19-MEL melanoma = system: M19-MEL melanoma
OVCAR-4 ovarian = system: OVCAR-4 ovarian
UACC-62 melanoma = system: UACC-62 melanoma
SK-MEL-2 melanoma = system: SK-MEL-2 melanoma
RXF-631 renal = system: RXF-631 renal
DMS 114 small cell lung = system: DMS 114 small cell lung

With N/C(=N\NS(=O)(=O)c1ccccc1)Oc1ccc(Br)cc1Br the TGI (OVCAR-5 ovarian) was > 100 µM, the TGI (UACC-257 melanoma) was > 100 µM and the TGI (KM20L2 colon) was > 100 µM. The TGI (LOX IMVI melanoma) was > 100 µM, the TGI (SK-MEL-5 melanoma) was > 100 µM and the TGI (SNB-19 CNS) was > 100 µM. For the same molecule, the TGI (NCI-H460 lung) was > 100 µM, the TGI (CAKI-1 renal) was > 100 µM and the TGI (HOP-18 NSCLC) was > 100 µM. The TGI (NCI-H522 lung) was > 100 µM, the TGI (DLD-1 colon) was > 100 µM and the TGI (HT29 colon) was > 100 µM. The TGI (786-0 renal) was > 100 µM, the TGI (HOP-62 NSCLC) was > 100 µM and the TGI (OVCAR-3 ovarian) was > 100 µM. The TGI (A549 NSCLC) was > 100 µM, the TGI (SF-268 CNS) was > 100 µM and the TGI (EKVX NSCLC) was > 100 µM. The TGI (HCT-116 colon) was > 100 µM, the TGI (SR leukemia) was > 100 µM and the TGI (M14 melanoma) was > 100 µM. For the same molecule, the TGI (KM12 colon) was > 100 µM, the TGI (RPMI-8226 leukemia) was > 100 µM and the TGI (SF-295 CNS) was > 100 µM. The TGI (MALME-3M melanoma) was > 100 µM, the TGI (DMS 273 small cell lung) was > 100 µM and the TGI (LXFL 529 NSCLC) was > 100 µM. For the same molecule, the TGI (COLO 205 colon) was > 100 µM, the TGI (HL-60(TB) leukemia) was > 100 µM and the TGI (SNB-75 CNS) was > 100 µM. The TGI (U251 CNS) was > 100 µM, the TGI (OVCAR-8 ovarian) was > 100 µM and the TGI (HCC-2998 colon) was > 100 µM. For the same molecule, the TGI (CCRF-CEM leukemia) was > 100 µM, the TGI (SN12C renal) was > 100 µM and the TGI (SW-620 colon) was 24.3 µM. The TGI (ACHN renal) was > 100 µM, the TGI (IGROV1 ovarian) was > 100 µM and the TGI (A498 renal) was > 100 µM. The TGI (SK-MEL-28 melanoma) was > 100 µM, the TGI (UO-31 renal) was > 100 µM and the TGI (MOLT-4 leukemia) was > 100 µM. For the same molecule, the TGI (NCI-H23 lung) was > 100 µM, the TGI (SK-OV-3 ovarian) was > 100 µM and the TGI (HOP-92 NSCLC) was > 100 µM. For the same molecule, the TGI (SF-539 CNS) was > 100 µM, the TGI (NCI-H226 lung) was > 100 µM and the TGI (RXF 393 renal) was > 100 µM. For the same molecule, the TGI (K-562 leukemia) was > 100 µM, the TGI (TK-10 renal) was > 100 µM and the TGI (SNB-78 CNS) was > 100 µM. The TGI (HCT-15 colon) was > 100 µM, the TGI (XF 498 CNS) was > 100 µM and the TGI (M19-MEL melanoma) was > 100 µM. The TGI (OVCAR-4 ovarian) was > 100 µM, the TGI (UACC-62 melanoma) was > 100 µM and the TGI (SK-MEL-2 melanoma) was > 100 µM. For the same molecule, the TGI (RXF-631 renal) was > 100 µM and the TGI (DMS 114 small cell lung) was > 100 µM.
O=C1Nc2cc([N+](=O)[O-])c(Br)cc2C1=O showed a TGI (UACC-257 melanoma) of 35.1 µM, a TGI (KM20L2 colon) of 31.7 µM and a TGI (LOX IMVI melanoma) of 35.2 µM. For the same molecule, the TGI (SK-MEL-5 melanoma) was 60.7 µM, the TGI (NCI-H460 lung) was > 100 µM and the TGI (CAKI-1 renal) was 47.5 µM. The TGI (NCI-H522 lung) was 30.3 µM, the TGI (DLD-1 colon) was 46.5 µM and the TGI (HT29 colon) was 41.9 µM. For the same molecule, the TGI (786-0 renal) was 35.8 µM, the TGI (HOP-62 NSCLC) was 75.1 µM and the TGI (OVCAR-3 ovarian) was 32.1 µM. The TGI (A549 NSCLC) was > 100 µM, the TGI (SF-268 CNS) was 44.1 µM and the TGI (EKVX NSCLC) was 47.4 µM. The TGI (SR leukemia) was 37.4 µM, the TGI (M14 melanoma) was 30.1 µM and the TGI (KM12 colon) was > 100 µM. It also gave a TGI (RPMI-8226 leukemia) of 43.3 µM, a TGI (SF-295 CNS) of 14.3 µM and a TGI (MALME-3M melanoma) of 46.4 µM. The TGI (DMS 273 small cell lung) was 37.3 µM, the TGI (COLO 205 colon) was 35 µM and the TGI (SNB-75 CNS) was 52 µM. The TGI (OVCAR-8 ovarian) was 31.6 µM, the TGI (CCRF-CEM leukemia) was 32.1 µM and the TGI (SN12C renal) was 32.7 µM. For the same molecule, the TGI (SW-620 colon) was 38.6 µM, the TGI (ACHN renal) was 35.3 µM and the TGI (IGROV1 ovarian) was 32.7 µM. The TGI (A498 renal) was > 100 µM, the TGI (SK-MEL-28 melanoma) was 36.3 µM and the TGI (UO-31 renal) was 36.2 µM. For the same molecule, the TGI (MOLT-4 leukemia) was 43 µM, the TGI (NCI-H23 lung) was 31.9 µM and the TGI (SK-OV-3 ovarian) was > 100 µM. For the same molecule, the TGI (HOP-92 NSCLC) was 43.1 µM, the TGI (SF-539 CNS) was 41 µM and the TGI (NCI-H226 lung) was 76.4 µM. For the same molecule, the TGI (RXF 393 renal) was 39.4 µM, the TGI (K-562 leukemia) was 55.7 µM and the TGI (TK-10 renal) was > 100 µM. It also gave a TGI (SNB-78 CNS) of 50.1 µM, a TGI (HCT-15 colon) of 37.1 µM and a TGI (XF 498 CNS) of 24.6 µM. It also gave a TGI (M19-MEL melanoma) of 31.6 µM, a TGI (OVCAR-4 ovarian) of 30.5 µM and a TGI (UACC-62 melanoma) of 42.4 µM. It also gave a TGI (SK-MEL-2 melanoma) of 71.9 µM, a TGI (RXF-631 renal) of 33.2 µM and a TGI (DMS 114 small cell lung) of 33.5 µM.
